In PMC5218480 (PLoS ONE, 2017):

Tested on: MV-4-11 cells
Experiment: Gene expression microarray analysis (Affymetrix PrimeView) and GSEA
Assay type: cell-based, human
Design: RFU PODN (11730768_x_at) / Fold change /veh PODN (11730768_x_at) / RFU LINC00158 (11744669_a_at) / Fold change /veh LINC00158 (11744669_a_at) / RFU DUSP10 (11751237_a_at) / Fold change /veh DUSP10 (11751237_a_at) / RFU ID3 (11757404_x_at) / Fold change /veh ID3 (11757404_x_at) / RFU PLEKHG5 (11737974_s_at) / Fold change /veh PLEKHG5 (11737974_s_at) / RFU LRRC4B (11730491_at) / Fold change /veh LRRC4B (11730491_at) / RFU GIMAP4 (11747438_a_at) / Fold change /veh GIMAP4 (11747438_a_at) / RFU KRT8 (11758183_x_at) / Fold change /veh KRT8 (11758183_x_at) / RFU CNN1 (11734310_a_at) / Fold change /veh CNN1 (11734310_a_at) / RFU VPS37D (11726825_at) / Fold change /veh VPS37D (11726825_at) / RFU C10orf10 (11716522_x_at) / Fold change /veh C10orf10 (11716522_x_at) / RFU KIR2DL2 /// KIR2DL4 /// KIR2DL5A /// KIR2DL5B /// KIR2DS1 /// KIR2DS2 /// KIR2DS3 /// KIR2DS4 /// KIR3DL3 /// KIR3DL3 /// KIR3DS1 (11738374_at) / Fold change /veh KIR2DL2 /// KIR2DL4 /// KIR2DL5A /// KIR2DL5B /// KIR2DS1 /// KIR2DS2 /// KIR2DS3 /// KIR2DS4 /// KIR3DL3 /// KIR3DL3 /// KIR3DS1 (11738374_at) / RFU C1QL1 (11718748_at) / Fold change /veh C1QL1 (11718748_at) / RFU TMPRSS4 (11747572_a_at) / Fold change /veh TMPRSS4 (11747572_a_at) / RFU HAMP (11756126_x_at) / Fold change /veh HAMP (11756126_x_at) / RFU RNFT2 (11725882_a_at) / Fold change /veh RNFT2 (11725882_a_at) / RFU NR4A2 (11747474_a_at) / Fold change /veh NR4A2 (11747474_a_at) / RFU ABCC12 (11746883_a_at) / Fold change /veh ABCC12 (11746883_a_at) / RFU TMEM136 (11760407_x_at) / Fold change /veh TMEM136 (11760407_x_at) / RFU CLDN22 /// WWC2 (11732394_at) / Fold change /veh CLDN22 /// WWC2 (11732394_at) / RFU HLA-DPB1 (11760878_x_at) / Fold change /veh HLA-DPB1 (11760878_x_at) / RFU SPINT1 (11716480_a_at) / Fold change /veh SPINT1 (11716480_a_at) / RFU GAP43 (11754022_s_at) / Fold change /veh GAP43 (11754022_s_at) / RFU A4GNT (11735810_at) / Fold change /veh A4GNT (11735810_at) / RFU PRB3 (11715151_x_at) / Fold change /veh PRB3 (11715151_x_at) / RFU TUBB4B (11761932_at) / Fold change /veh TUBB4B (11761932_at) / RFU CAPN14 (11732068_a_at) / Fold change /veh CAPN14 (11732068_a_at) / RFU TMCC2 (11721928_a_at) / Fold change /veh TMCC2 (11721928_a_at) / RFU IRGQ (11745062_a_at) / Fold change /veh IRGQ (11745062_a_at) / RFU FAM174B (11720279_a_at) / Fold change /veh FAM174B (11720279_a_at) / RFU TMPRSS4 (11748680_a_at) / Fold change /veh TMPRSS4 (11748680_a_at) / RFU FAM212B (11763350_a_at) / Fold change /veh FAM212B (11763350_a_at) / RFU PLEKHG5 (11743358_a_at) / Fold change /veh PLEKHG5 (11743358_a_at) / RFU ZSCAN30 (11745921_a_at) / Fold change /veh ZSCAN30 (11745921_a_at) / RFU CMKLR1 (11741424_a_at) / Fold change /veh CMKLR1 (11741424_a_at) / RFU LOC101060620 /// MAPK8IP1 (11723275_at) / Fold change /veh LOC101060620 /// MAPK8IP1 (11723275_at) / RFU SPTSSB (11747773_x_at) / Fold change /veh SPTSSB (11747773_x_at) / RFU PRSS12 (11739890_at) / Fold change /veh PRSS12 (11739890_at) / RFU BIN1 (11741810_x_at) / Fold change /veh BIN1 (11741810_x_at) / RFU WNT11 (11732464_a_at) / Fold change /veh WNT11 (11732464_a_at) / RFU C10orf10 (11716521_a_at) / Fold change /veh C10orf10 (11716521_a_at) / RFU C5orf56 (11738089_at) / Fold change /veh C5orf56 (11738089_at) / RFU CYB561 (11721691_x_at) / Fold change /veh CYB561 (11721691_x_at) / RFU ANKRD19P (11752326_a_at) / Fold change /veh ANKRD19P (11752326_a_at) / RFU OR2T12 /// OR2T33 /// OR2T8 (11738714_s_at) / Fold change /veh OR2T12 /// OR2T33 /// OR2T8 (11738714_s_at) / RFU VCAN (11748164_a_at) / Fold change /veh VCAN (11748164_a_at) / RFU JSRP1 (11732532_at) / Fold change /veh JSRP1 (11732532_at) / RFU KRTAP10-11 (11738290_x_at) / Fold change /veh KRTAP10-11 (11738290_x_at) / RFU MYO3A (11730013_a_at) / Fold change /veh MYO3A (11730013_a_at) / RFU EBF3 (11725865_a_at) / Fold change /veh EBF3 (11725865_a_at) / RFU CAMK2N1 (11719241_x_at) / Fold change /veh CAMK2N1 (11719241_x_at) / RFU C5orf56 (11738088_a_at) / Fold change /veh C5orf56 (11738088_a_at) / RFU OLFML3 (11715873_a_at) / Fold change /veh OLFML3 (11715873_a_at) / RFU LOC100653217 /// NTM (11731650_a_at) / Fold change /veh LOC100653217 /// NTM (11731650_a_at) / RFU MAPK11 (11762145_a_at) / Fold change /veh MAPK11 (11762145_a_at) / RFU FIZ1 (11724087_x_at) / Fold change /veh FIZ1 (11724087_x_at) / RFU OASL (11726364_x_at) / Fold change /veh OASL (11726364_x_at) / RFU SOX15 (11748057_x_at) / Fold change /veh SOX15 (11748057_x_at) / RFU CD79A (11719716_a_at) / Fold change /veh CD79A (11719716_a_at) / RFU HIST1H1D (11736915_at) / Fold change /veh HIST1H1D (11736915_at) / RFU CASKIN2 (11723855_a_at) / Fold change /veh CASKIN2 (11723855_a_at) / RFU LOC730098 (11760151_x_at) / Fold change /veh LOC730098 (11760151_x_at) / RFU OR4N2 (11742367_at) / Fold change /veh OR4N2 (11742367_at) / RFU PRRT2 (11749266_a_at) / Fold change /veh PRRT2 (11749266_a_at) / RFU SNX32 (11753110_a_at) / Fold change /veh SNX32 (11753110_a_at) / RFU CDHR5 (11726645_a_at) / Fold change /veh CDHR5 (11726645_a_at) / RFU RCAN1 (11760418_a_at) / Fold change /veh RCAN1 (11760418_a_at) / RFU FAM167A (11723789_a_at) / Fold change /veh FAM167A (11723789_a_at) / RFU FAM26E (11764081_at) / Fold change /veh FAM26E (11764081_at) / RFU ISYNA1 (11749810_s_at) / Fold change /veh ISYNA1 (11749810_s_at) / RFU ACY1 (11761880_at) / Fold change /veh ACY1 (11761880_at) / RFU 11764098_at / Fold change /veh 11764098_at / RFU SAMD14 (11745864_x_at) / Fold change /veh SAMD14 (11745864_x_at) / RFU NPB (11741838_a_at) / Fold change /veh NPB (11741838_a_at) / RFU TMPRSS6 (11731388_a_at) / Fold change /veh TMPRSS6 (11731388_a_at) / RFU KRTAP10-2 (11738614_at) / Fold change /veh KRTAP10-2 (11738614_at) / RFU ARHGAP8 /// PRR5-ARHGAP8 (11727945_x_at) / Fold change /veh ARHGAP8 /// PRR5-ARHGAP8 (11727945_x_at) / RFU KRTAP5-7 /// NADSYN1 (11734609_at) / Fold change /veh KRTAP5-7 /// NADSYN1 (11734609_at) / RFU RASL12 (11751679_a_at) / Fold change /veh RASL12 (11751679_a_at) / RFU CDKN2B (11736163_a_at) / Fold change /veh CDKN2B (11736163_a_at) / RFU PRF1 (11729649_at) / Fold change /veh PRF1 (11729649_at) / RFU, ZNF638 /// ZNF638-IT1 / Fold change vs veh, ZNF638 /// ZNF638-IT1 / RFU, PANK3 / Fold change vs veh, PANK3 / RFU, SH3YL1 / Fold change vs veh, SH3YL1 / RFU, ZEB2 / Fold change vs veh, ZEB2 / RFU, NRIP1 / Fold change vs veh, NRIP1 / RFU, PTTG1IP / Fold change vs veh, PTTG1IP / RFU, CAPN2 / Fold change vs veh, CAPN2 / RFU, MED14 / Fold change vs veh, MED14 / RFU, SNORA58 / Fold change vs veh, SNORA58 / RFU, C1orf63 / Fold change vs veh, C1orf63 / RFU, LRRFIP1 / Fold change vs veh, LRRFIP1 / RFU, NDUFAF7 / Fold change vs veh, NDUFAF7 / RFU, SLC12A2 / Fold change vs veh, SLC12A2 / RFU, IBTK / Fold change vs veh, IBTK / RFU, ESF1 / Fold change vs veh, ESF1 / Fold change vs veh, TMEM50B / RFU, TAOK1 / Fold change vs veh, TAOK1 / RFU, ACBD3 / Fold change vs veh, ACBD3 / RFU, TMA16 / Fold change vs veh, TMA16 / RFU, RWDD3 / Fold change vs veh, RWDD3 / RFU, BCAT1 / Fold change vs veh, BCAT1 / RFU, EDEM3 / Fold change vs veh, EDEM3 / RFU, TMEM33 / Fold change vs veh, TMEM33 / RFU, WDR75 / Fold change vs veh, WDR75 / RFU, AHCTF1 / Fold change vs veh, AHCTF1 / RFU, TFRC / Fold change vs veh, TFRC / RFU, ZDHHC17 / Fold change vs veh, ZDHHC17 / RFU, NOM1 / Fold change vs veh, NOM1 / RFU, ARL8B / Fold change vs veh, ARL8B / RFU, ZBTB11 / Fold change vs veh, ZBTB11 / RFU, TAMM41 / Fold change vs veh, TAMM41 / RFU, KIAA1704 /// LOC100996395 / Fold change vs veh, KIAA1704 /// LOC100996395 / RFU, ING1 / Fold change vs veh, ING1 / RFU, TRMT61B / Fold change vs veh, TRMT61B / RFU, FUBP3 / Fold change vs veh, FUBP3 / RFU, TP53 / Fold change vs veh, TP53 / RFU, TNKS2 / Fold change vs veh, TNKS2 / RFU, ZFP14 / Fold change vs veh, ZFP14 / RFU, ACTR2 / Fold change vs veh, ACTR2 / RFU, PPP3R1 / Fold change vs veh, PPP3R1 / RFU, PIK3R1 / Fold change vs veh, PIK3R1 / RFU, HNRNPA1 / Fold change vs veh, HNRNPA1 / RFU, RNF170 / Fold change vs veh, RNF170 / RFU, ZNF28 / Fold change vs veh, ZNF28 / RFU, RNGTT / Fold change vs veh, RNGTT / RFU, OGT / Fold change vs veh, OGT / RFU, BRD1 / Fold change vs veh, BRD1 / RFU, MARS / Fold change vs veh, MARS / RFU, ZNF655 / Fold change vs veh, ZNF655 / RFU, FAHD1 / Fold change vs veh, FAHD1 / RFU, BDP1 / Fold change vs veh, BDP1 / RFU, LRRCC1 / Fold change vs veh, LRRCC1 / RFU, ARID1A / Fold change vs veh, ARID1A / RFU, ZNF146 / Fold change vs veh, ZNF146 / RFU, ZNF330 / Fold change vs veh, ZNF330 / RFU, GPN3 / Fold change vs veh, GPN3 / RFU, C9orf123 / Fold change vs veh, C9orf123 / RFU, N4BP2L2 / Fold change vs veh, N4BP2L2 / RFU, ARFIP1 / Fold change vs veh, ARFIP1 / RFU, FAM179B / Fold change vs veh, FAM179B / RFU, BCL10 / Fold change vs veh, BCL10 / RFU, UHRF1BP1L / Fold change vs veh, UHRF1BP1L / RFU, BET1 / Fold change vs veh, BET1 / RFU, CNOT2 / Fold change vs veh, CNOT2 / RFU, ZNF268 / Fold change vs veh, ZNF268 / Fold change vs veh, ZNF507 / RFU, DGCR2 / Fold change vs veh, DGCR2 / RFU, WDSUB1 / Fold change vs veh, WDSUB1 / Fold change vs veh, HSP90B1 /// MIR3652 / RFU, ADSS / Fold change vs veh, ADSS / RFU, GK / Fold change vs veh, GK / RFU, ZNF148 / Fold change vs veh, ZNF148 / RFU, TAF9 / Fold change vs veh, TAF9 / RFU, SLC1A5 / Fold change vs veh, SLC1A5 / RFU, SLMO2 / Fold change vs veh, SLMO2 / RFU, ABCC4 / Fold change vs veh, ABCC4 / RFU, LOC101060439 /// RAP1B / Fold change vs veh, LOC101060439 /// RAP1B / RFU, RFX7 / Fold change vs veh, RFX7 / RFU, GTPBP10 / Fold change vs veh, GTPBP10 / RFU, CNEP1R1 / Fold change vs veh, CNEP1R1 / RFU, BIVM-ERCC5 /// ERCC5 / Fold change vs veh, BIVM-ERCC5 /// ERCC5 / RFU, ILF3 / Fold change vs veh, ILF3 / RFU 11762660_at / Fold change /veh 11762660_at / RFU VCAN (11757783_s_at) / Fold change /veh VCAN (11757783_s_at) / RFU DDX43 (11728927_at) / Fold change /veh DDX43 (11728927_at) / RFU KRT8 (11758188_x_at) / Fold change /veh KRT8 (11758188_x_at) / RFU NKD1 (11759106_at) / Fold change /veh NKD1 (11759106_at) / RFU SRD5A1 (11742802_a_at) / Fold change /veh SRD5A1 (11742802_a_at) / RFU TPSAB1 /// TPSB2 (11721975_s_at) / Fold change /veh TPSAB1 /// TPSB2 (11721975_s_at) / RFU GSTM3 (11746129_a_at) / Fold change /veh GSTM3 (11746129_a_at) / RFU IL23R (11737362_x_at) / Fold change /veh IL23R (11737362_x_at) / RFU TMEM51 (11727254_a_at) / Fold change /veh TMEM51 (11727254_a_at) / RFU PIWIL2 (11732686_x_at) / Fold change /veh PIWIL2 (11732686_x_at) / RFU ORM1 (11744905_x_at) / Fold change /veh ORM1 (11744905_x_at) / RFU CCDC152 (11743942_at) / Fold change /veh CCDC152 (11743942_at) / RFU ECM1 (11717891_a_at) / Fold change /veh ECM1 (11717891_a_at) / RFU IL23R (11748794_a_at) / Fold change /veh IL23R (11748794_a_at) / RFU TNFAIP8L3 (11732012_x_at) / Fold change /veh TNFAIP8L3 (11732012_x_at) / RFU MBOAT4 (11741988_at) / Fold change /veh MBOAT4 (11741988_at) / RFU 11764193_at / Fold change /veh 11764193_at / RFU TMEM53 (11763286_at) / Fold change /veh TMEM53 (11763286_at) / RFU MAGEB2 (11727129_at) / Fold change /veh MAGEB2 (11727129_at) / RFU TMEM200A (11744735_a_at) / Fold change /veh TMEM200A (11744735_a_at) / RFU CCDC152 (11751479_a_at) / Fold change /veh CCDC152 (11751479_a_at) / RFU FAM211A (11726209_a_at) / Fold change /veh FAM211A (11726209_a_at) / RFU RGS16 (11746705_a_at) / Fold change /veh RGS16 (11746705_a_at) / RFU VCAN (11755009_s_at) / Fold change /veh VCAN (11755009_s_at) / RFU RHOB (11743442_s_at) / Fold change /veh RHOB (11743442_s_at) / RFU RGS16 (11720943_a_at) / Fold change /veh RGS16 (11720943_a_at) / RFU RGS16 (11720944_at) / Fold change /veh RGS16 (11720944_at) / RFU, VPS4B / Fold change vs veh, VPS4B / RFU, CREB1 / Fold change vs veh, CREB1 / RFU, DNAJC13 / Fold change vs veh, DNAJC13 / RFU, GNAQ / Fold change vs veh, GNAQ / RFU, CDK5R1 / Fold change vs veh, CDK5R1 / RFU, ZRANB3 / Fold change vs veh, ZRANB3 / RFU, CUL4A / Fold change vs veh, CUL4A / RFU, CCNY / Fold change vs veh, CCNY / RFU, UFL1 / Fold change vs veh, UFL1 / RFU, COG3 / Fold change vs veh, COG3 / RFU, DIAPH2 / Fold change vs veh, DIAPH2 / RFU, SKA2 / Fold change vs veh, SKA2 / RFU, AFF3 / Fold change vs veh, AFF3 / RFU, LMF1 / Fold change vs veh, LMF1 / RFU, IPO11 / Fold change vs veh, IPO11 / RFU, DFFB / Fold change vs veh, DFFB / RFU, FOXP1 / Fold change vs veh, FOXP1 / RFU, CARD8 / Fold change vs veh, CARD8 / RFU, STRN3 / Fold change vs veh, STRN3 / RFU, ADK / Fold change vs veh, ADK / RFU, RASSF2 / Fold change vs veh, RASSF2 / RFU, WIPF1 / Fold change vs veh, WIPF1 / RFU, LARP1B / Fold change vs veh, LARP1B / RFU, RASA1 / Fold change vs veh, RASA1 / RFU, RB1 / Fold change vs veh, RB1 / RFU, PPFIA1 / Fold change vs veh, PPFIA1 / RFU, MAT2A / Fold change vs veh, MAT2A / RFU, CCT5 / Fold change vs veh, CCT5 / RFU, WDR92 / Fold change vs veh, WDR92 / RFU, CUX1 / Fold change vs veh, CUX1 / RFU, TTC7A / Fold change vs veh, TTC7A / RFU, TMEM135 / Fold change vs veh, TMEM135 / RFU, DEPTOR / Fold change vs veh, DEPTOR / RFU, CPM / Fold change vs veh, CPM / RFU, DNAJB6 / Fold change vs veh, DNAJB6 / RFU, CACNA2D3 / Fold change vs veh, CACNA2D3 / RFU, DTX4 / Fold change vs veh, DTX4 / RFU, TFCP2 / Fold change vs veh, TFCP2 / RFU, GMCL1 /// GMCL1P1 / Fold change vs veh, GMCL1 /// GMCL1P1 / RFU, AEBP2 / Fold change vs veh, AEBP2 / RFU, SNHG1 /// SNORD22 /// SNORD25 /// SNORD26 /// SNORD27 /// SNORD28 /// SNORD29 /// SNORD31 / Fold change vs veh, SNHG1 /// SNORD22 /// SNORD25 /// SNORD26 /// SNORD27 /// SNORD28 /// SNORD29 /// SNORD31 / Fold change (Aza/veh), C12orf56 (ProbeSet 11735607_a_at) / Fold change (ACY-1035/veh), C12orf56 (ProbeSet 11735607_a_at) / Fold change (Aza/veh), FGFR1OP (ProbeSet 11751329_s_at) / Fold change (ACY-1035/veh), FGFR1OP (ProbeSet 11751329_s_at) / Fold change (Aza/veh), VPS36 (ProbeSet 11739960_a_at) / Fold change (ACY-1035/veh), VPS36 (ProbeSet 11739960_a_at) / RFU SYPL1 (11715823_x_at) / Fold change /veh SYPL1 (11715823_x_at) / RFU IGFBP7 (11715501_s_at) / Fold change /veh IGFBP7 (11715501_s_at) / RFU REEP3 (11722064_at) / Fold change /veh REEP3 (11722064_at) / RFU IGLL1 (11728026_x_at) / Fold change /veh IGLL1 (11728026_x_at): dose or concentration left out as unconfirmed
Settings: MV-4-11 cells, 48 hours

Compound: Nc1ncn([C@@H]2O[C@H](CO)[C@@H](O)[C@H]2O)c(=O)n1 [azacitidine]
- Fold change /veh CAMK2N1 (11719241_x_at): 0.94
